These results are taken from patent US20090299063A1, “Inhibitors for Extracellular Signal-Regulated Kinase Docking Domains and Uses Therefor” (priority 2005, published 2009).

“Also recorded” adds a separate entry of the source.

One experiment deals with T1, ERK2 (Mus musculus, UniProt P63085).
T1 construct: (His)6; made in house; host or cells: bacteria
Put plainly: ERK2 fluorescence titration (quenching of intrinsic fluorescence). The format is binding. Particulars: for quenching of ERK2 fluorescence (in words): wild type ERK2, excitation 295 nm. An excerpt: ERK2 was purified as described previously (46) with some modifications. Briefly, (His)6-tagged ERK2 was expressed in bacteria and the cells were harvested in BugBuster protein extraction reagent (EMD Biosciences, San Diego, Calif.). Clarified lysates were loaded onto a Talon Co^2+-IMAC affinity chromatography resin column (BD Biosciences, San Jose, Calif.) and the bound protein was eluted using increasing concentrations of imidazole. SDS-PAGE electrophoresis and Coomassie blue staining were used to identify the eluted fractions containing the ERK2 protein. The ERK2 protein concentration was determined using Bradford Reagent (Sigma).
Experiments will measure the changes in the intrinsic ERK2 fluorescence due to the presence of aromatic amino acids, with the indole group of tryptophan being the major fluorophore with absorption and emission maxima around 280 and 340 nanometers (nm), respectively. Fluorescence spectra were recorded with a Luminescence Spectrometer LS50 (Perkin Elmer, Boston, Mass.). For all experiments, ERK2 protein was diluted into 20 mM Tris-HCl, pH 7.5. Titrations were performed by increasing the test compound concentration while maintaining the ERK2 protein concentration at […]. […] The excitation wavelength was 295 nm and fluorescence was monitored from 300 to 500 nm. All reported fluorescence intensities are relative values and are not corrected for wavelength variations in detector response. Dissociation constants, KD, were determined using reciprocal plots, 1/v vs 1/[I], where v represents the percent occupied sites calculated assuming fluorescence quenching to be directly proportion to the percentage of occupied binding sites, [1] represents the concentration of the inhibitor compound and the slope of the curve equals the KD (48-49).
ERK2 contains three tryptophans, which have intrinsic fluorescence.

The subject of another experiment is HeLa cells. Nature of the experiment: Colony formation assay, HeLa cells. Particulars: FIG. 8A, 10 cm plates, 100 mM (printed) compound. It counts as cell-based, human. The method, then:
(§1) HeLa, A549, or SUM-159 cells were plated at a low density of 200-400 cells per well in the absence or presence of putative ERK docking domain inhibitors. Cell colonies were stained with crystal violet and counted after 6-10 days. In FIG. 8A cells were grown on 10 cm plates in the absence (−) or presence of […] of compound 67, 36, 68, 81, or 76. Colony formation dose response in the presence of the indicated concentrations of compound 76 (closed squares) or 81 (open squares) for Hela cells ([…]) (FIG. 8B), A549 cells (50 mM) (FIG. 8C), or SUM-159 cells (50 mM) (FIG. 8D).
(§2) Two methods were used to determine cell proliferation and survival based on colony formation. First, HeLa cells were grown to 70-80% confluence and then treated for 16 hours in the absence (DMSO only) or presence of active compounds. The next day cells were trypsinized, replated (1000-2000 cells per 10 cm culture dish) in regular media and allowed to grow for 8-14 days. Cells then were fixed for 10 minutes in 4% paraformaldehyde and stained with 0.2% crystal violet (in 20% methanol) for 1-2 minutes. Cells were washed several times with distilled water and colonies formed of at least 40 cells were counted. In the second method, growing cells were trypsinized and replated (500-1000 cells per 35 or 60 mm well, respectively) in the presence or absence of various concentrations of the test compounds. Following incubation for 8-14 days, cells were fixed, stained with crystal violet, and counted as described above.
The effects of the active compounds on cell proliferation and survival were tested using a colony formation assay.
(§3) Thus, several test compounds that show maximal inhibition of ERK substrates are also effective inhibitors of proliferation in cultured cancer cell lines.

The test system of experiment [1] is HT1080 fibrosarcoma cells. Put plainly: Cell proliferation, HT1080 cells. It counts as cell-based, human. Particulars: HT1080, data not shown. The method, then: as §2, §3
The test system of experiment [2] is SUM-159 estrogen-receptor negative breast cancer cell line. Put plainly: Colony formation assay, SUM-159 cells. Particulars: SUM-159, FIG. 8D. It counts as cell-based, human. The method, then: as §1
as §2, with “In the second method, growing cells were trypsinized and replated (500-1000 cells per 35 or 60 mm well, respectively) in the presence or absence of various concentrations of the test compounds.” left out, “above. […]” for “above.”

For experiment [3], the system named is ERK-specific phosphorylation of Elk-1 on Ser383. Put plainly: ERK-mediated Elk-1 phosphorylation, immunoblot of EGF-stimulated HeLa cells. It counts as cell-based, human. The method, then:
(§4) In FIGS. […] The far left lane is the control (−) with no EGF. […] The control (C) is EGF only treatment. In FIG. 4B cells pretreated with increasing concentrations of compound 76 were stimulated with EGF. ELK-1 phosphorylation on Ser383 (pELK-1) was measured by immunoblotting. […] Protein lysates were separated by SDS-PAGE and immunoblotted simultaneously for phosphorylated ELK-1 (pELK-1, Ser383), dually phosphorylated ERK1/2 (ppERK1/2), and a-tubulin as a protein loading control. […] The control (C) is EGF only treatment.
(§5) The lysates then were diluted with an equal volume of 2× SDS-sample buffer and the proteins were separated on SDS-PAGE for immunoblot analysis. Immunoblot analysis was done as previously described (41-43).
Compounds that were identified using the 3D structure of phosphorylated ERK2 also were tested.
In general terms: Immunoblotting shows a protein as a band on a membrane.

The subject of experiment [4] is dually phosphorylated ERK1/2 (ppERK1/2). Put plainly: ERK1/2 phosphorylation on activating sites (ppERK1/2), immunoblot of EGF-stimulated HeLa cells. The format is cell-based, human. The method, then: as §4, with “FIGS. 4A-4B HeLa cells were treated with EGF for 5 minutes with or without […] of test compounds.” for “FIGS.”
as §5

A further experiment relates to colony formation. Nature of the experiment: Colony formation assay of compounds 86-98 (cell line not given). The format is cell-based. Particulars: Table 3. The method, then:
Cell colonies were stained with crystal violet and counted after 6-10 days.
Cells then were fixed for 10 minutes in 4% paraformaldehyde and stained with 0.2% crystal violet (in 20% methanol) for 1-2 minutes.

For experiment [5], the system named is ERK-mediated phosphorylation of Rsk-1 on Thr573. Nature of the experiment: ERK-mediated Rsk-1 phosphorylation, immunoblot of EGF-stimulated HeLa cells. The format is cell-based, human.
The mark [6] stands for this setting: 75 mM (printed) test compound 30 minutes, EGF 5 minutes.
Setting [7] is: increasing doses of compound, EGF stimulation.

T1 sequence (P63085 whole entry): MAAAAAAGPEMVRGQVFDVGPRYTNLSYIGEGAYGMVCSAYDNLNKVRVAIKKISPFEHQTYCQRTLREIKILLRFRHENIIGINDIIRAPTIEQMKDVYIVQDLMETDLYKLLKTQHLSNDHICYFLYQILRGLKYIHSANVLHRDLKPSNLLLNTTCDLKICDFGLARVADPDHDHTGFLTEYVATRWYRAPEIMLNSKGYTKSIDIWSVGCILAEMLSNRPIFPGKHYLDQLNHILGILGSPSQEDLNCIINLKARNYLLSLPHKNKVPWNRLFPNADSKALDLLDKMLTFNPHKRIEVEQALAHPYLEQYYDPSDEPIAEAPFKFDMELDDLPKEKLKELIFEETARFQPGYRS

As to `O=C(CCN1CCN(C/C=C/c2ccccc2)CC1)Nc1ccc(Cl)cc1` [Compound 81], on ERK2, the “quenching of ERK2 fluorescence (in words)” value (from here on “quenching”) is listed as “quenching only occurs to a small extent at the higher concentrations”. In addition, in the experiment on HeLa cells, the “effect on colony formation / cell proliferation (in words)” value is reported as “completely inhibited cell proliferation”. The “inhibition of cell proliferation (in words)” value in experiment [1] and in experiment [2] was “inhibition of cell proliferation” each time.
The IC50 is the concentration that gives 50% inhibition. A lower IC50 goes with greater potency in that assay. With `COc1cc(C=C2NC(=O)NC2=O)ccc1OCc1ccc(Br)cc1` [Compound 95], in experiment [3] (setting [6]), the “effect on EGF-mediated ELK-1 phosphorylation (Ser383)” value was “showed evidence for inhibiting ERK-mediated ELK-1 phosphorylation; also recorded: inhibited EGF-mediated ELK-1 phosphorylation”. Moreover, the “effect on ERK1/2 phosphorylation (ppERK1/2)” value in experiment [4] (setting [6]) is “little effect on ERK1/2 phosphorylation”. Moreover, the “quenching” value on ERK2 is “quenched ERK2 fluorescence; also recorded: more effective in quenching”. This molecule also gave an IC50 with colony formation above 100 µM.
For `N=C(N)Nc1nc(C2COc3ccccc3O2)cs1` (stereo not drawn) [Compound 36], the “effect on colony formation / cell proliferation (in words)” value in the experiment with HeLa cells is “subtle inhibition of colony formation; also recorded: little effect on colony formation”. Besides, the “effect on ERK-mediated Rsk-1 phosphorylation (in words)” value in experiment [5] is “little effect on ERK substrate phosphorylation; also recorded: little effect on ERK-mediated Rsk-1 phosphorylation”.
As to `CCOc1ccc(C=C2SC(=O)N(CCN)C2=O)cc1` [Compound 76], the “effect on ERK-mediated Elk-1 phosphorylation (Ser383)” value in experiment [3] (setting [7]) was “inhibited ERK-mediated Elk-1 phosphorylation”. Moreover, the “effect on ERK1/2 phosphorylation on its activating sites” value in experiment [4] (setting [7]) is listed as “largely unaffected”. Further, the “y-intercept of reciprocal plot (indicating a single binding site)” value at ERK2 (wild type ERK2) was 1.8. The “quenching” value at ERK2 is given as “strong quenching of fluorescence”. For the same molecule, the “effect on colony formation / cell proliferation (in words)” value in the experiment with HeLa cells is given as “completely inhibited cell proliferation”. The “inhibition of cell proliferation (in words)” value in experiment [1] and in experiment [2] was “inhibition of cell proliferation” each time. In addition, the “effect on ERK-mediated Rsk-1 phosphorylation (in words)” value in experiment [5] was “highest inhibition of Rsk-1 phosphorylation”.
